From PubChem BioAssay (NCI) come the findings set out here.

The structures appear in SMILES notation.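 Test compounds were applied to cells in 96-well plates for 48 hours at 5 doses. The concentration for 50% growth inhibition is given as GI50. The concentration for full growth arrest is given as TGI.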

The first assay has as its system M14 melanoma. The assay can be described thus: NCI anticancer screen, dose series, 48 h.
`C[C@]12CCc3nc(Nc4ccccc4)sc3C1=CC[C@@H]1[C@@H]2CC[C@]2(C)/C(=N/NC(N)=S)CC[C@@H]12`: the GI50 is 3.71 µM and the TGI was greater than 100 µM.
Regarding `CN(NC(=O)c1cccs1)C1=NCCCN1`, the TGI was greater than 100 µM.
`O=C1CCCCC(=O)OC2(CCCCC2=O)CC1` (configuration not stated) displayed a TGI greater than 100 µM.
`CC1=NN(c2ccc(S(=O)(=O)O)cc2)C2(C1)SCC(=O)N2c1nc2ccccc2s1` (configuration not stated) returned a TGI greater than 100 µM.
On to `Cc1ccc2nc(Cl)c(/C=N/N3C(=O)/C(=C/c4ccccc4S)N=C3c3ccccc3)cc2c1`, for which the TGI came out at 79.4 µM.
In the case of `CCOP(=O)(OCC)c1c(C(=O)OC)cc(=O)[nH]c1-c1ccc(C)cc1`, the TGI came to 27.8 µM.
`COC(=O)C1=C(C(=O)OC)SC2(S1)C1=C(CCCC1)SC(C(=O)OC)=C2C(=O)OC` registered a TGI of 32.5 µM.
`Cc1cn(C2CC(n3cc(Cn4cc(Br)c(=O)[nH]c4=O)nn3)C(CO)O2)c(=O)[nH]c1=O` (configuration not stated) displayed a TGI greater than 100 µM.
As for `CC1Cn2c(nc3ccccc32)NC1=O` (configuration not stated), the TGI was greater than 100 µM.
`Cc1cn(C(Cc2ccccc2)OCCO)c(=O)[nH]c1=O` (configuration not stated): the TGI is greater than 100 µM.

Another assay has as its system NCI/ADR-RES ovarian. The assay can be described thus: NCI anticancer screen, dose series, 48 h.
The molecule `CCC1(C(=O)OC(C)(C)C)OC12C(C)CCCC2C` (configuration not stated) yielded a TGI greater than 100 µM.
Take `Cc1ccc(-c2cc(N)n(-c3nc4c(c(=O)n(C)c(=O)n4C)n3C)n2)cc1`: the TGI was greater than 100 µM.
On to `O=C(NC(Cc1ccc(I)cc1)C(=O)O)c1ccc(Br)cc1` (configuration not stated), for which the TGI is greater than 100 µM.
`CC1CCOc2ccc(cc2)C=Nc2ccc(cc2)CCc2ccc(cc2)N=Cc2ccc(cc2)OCC1` (configuration not stated) came in with a TGI greater than 100 µM.
On the same count and under the same terms, next, `COC(=O)[C@H](Cc1ccccc1)NC(=O)[C@H](Cc1ccccc1)NC(=O)[C@@H]1CCCN1C(=O)N[C@H]1C2C=CC(C2)C1C(=O)N1CCC[C@H]1C(=O)N[C@@H](C)C(=O)N[C@H](C(=O)OC)C(C)C` (some centres not stated): greater than 100 µM; `O=C1c2ccccc2-c2nc(-c3cccc([N+](=O)[O-])c3)nnc21`: 37 µM.
For `CNC(=O)Oc1ccc(-c2cn3cc(OC(=O)NC)ccc3n2)cc1`, the TGI was greater than 100 µM.
`CC(=O)N1N=C(c2ccc3ccccc3c2O)CC1C(=O)c1ccco1` (configuration not stated) registered a TGI of 57.8 µM.
`N#Cc1nc(-c2cccs2)oc1N` yielded a TGI greater than 100 µM.
Turning to `O=c1c2c([N+](=O)[O-])cccc2nc2[nH]c3ccccc3n12`, the TGI was greater than 75 µM.
In turn, `Cc1cc(C)cc(Nc2cc(=O)[nH]c(=O)[nH]2)c1` showed a TGI greater than 100 µM.
Still for that read-out and setting: next, `O=c1[nH]/c(=C/c2ccc(OCc3ccccc3)cn2)c(=O)[nH]/c1=C/c1ccc(O)cc1`: 2.09 µM; `N#C/C(=C\n1ccc(=O)[nH]c1=S)C(N)=O`: greater than 100 µM; `Nn1c(CCCCCCCCc2nnc(COc3ccc(Cl)cc3)n2N)nnc1COc1ccc(Cl)cc1`: greater than 100 µM.
`O=C(OCC1OC2OC(c3ccccc3)(n3ccc4c([N+](=O)[O-])ccnc43)OC2C1OC(=O)c1ccccc1)c1ccccc1` (configuration not stated) returned a TGI greater than 100 µM.
As for `Cc1[nH]c(=O)[nH]c(=O)c1/C=C/C(=O)O`, the TGI was greater than 1000 µM.
In turn, `OCC1OC(n2cnc3c(Cl)nc(Nc4ccccc4)nc32)CC1O` (configuration not stated) gave a TGI greater than 100 µM.
With `C[C@]12CCc3nc(Nc4ccccc4)sc3C1=CC[C@@H]1[C@@H]2CC[C@]2(C)/C(=N/NC(N)=S)CC[C@@H]12`, the GI50 was 4.01 µM and the TGI was greater than 100 µM.
Consider `CN(NC(=O)c1cccs1)C1=NCCCN1`, for which the TGI is greater than 100 µM.
For `O=C1CCCCC(=O)OC2(CCCCC2=O)CC1` (configuration not stated), the TGI is greater than 100 µM.
Still for that read-out and setting: the value for `CC1=NN(c2ccc(S(=O)(=O)O)cc2)C2(C1)SCC(=O)N2c1nc2ccccc2s1` (configuration not stated) was greater than 100 µM; that for `Nc1ccc2[nH]c3c(-c4ccccc4)nccc3c2c1` was greater than 100 µM; that for `Cc1ccc2nc(Cl)c(/C=N/N3C(=O)/C(=C/c4ccccc4S)N=C3c3ccccc3)cc2c1` was 76.5 µM.
Take `CCOP(=O)(OCC)c1c(C(=O)OC)cc(=O)[nH]c1-c1ccc(C)cc1`: the TGI was greater than 57.5 µM.
In the case of `COC(=O)C1=C(C(=O)OC)SC2(S1)C1=C(CCCC1)SC(C(=O)OC)=C2C(=O)OC`, the TGI turned out to be 40.9 µM.
Still for that read-out and setting: the value for `Cc1cn(C2CC(n3cc(Cn4cc(Br)c(=O)[nH]c4=O)nn3)C(CO)O2)c(=O)[nH]c1=O` (configuration not stated) was greater than 100 µM.
On the same count and under the same terms, the value for `CC1Cn2c(nc3ccccc32)NC1=O` (configuration not stated) was greater than 100 µM; that for `Cc1cn(C(Cc2ccccc2)OCCO)c(=O)[nH]c1=O` (configuration not stated) was greater than 100 µM.

A further assay relates to SNB-19 CNS. The assay is described as follows: NCI anticancer screen, dose series, 48 h.
`CCC1(C(=O)OC(C)(C)C)OC12C(C)CCCC2C` (configuration not stated) showed a TGI greater than 100 µM.
`Cc1ccc(-c2cc(N)n(-c3nc4c(c(=O)n(C)c(=O)n4C)n3C)n2)cc1`: the TGI was greater than 100 µM.
As for `O=C(NC(Cc1ccc(I)cc1)C(=O)O)c1ccc(Br)cc1` (configuration not stated), the TGI is greater than 100 µM.
`CC1CCOc2ccc(cc2)C=Nc2ccc(cc2)CCc2ccc(cc2)N=Cc2ccc(cc2)OCC1` (configuration not stated) displayed a TGI greater than 100 µM.
The same measure, in the same setting: the value for `COC(=O)[C@H](Cc1ccccc1)NC(=O)[C@H](Cc1ccccc1)NC(=O)[C@@H]1CCCN1C(=O)N[C@H]1C2C=CC(C2)C1C(=O)N1CCC[C@H]1C(=O)N[C@@H](C)C(=O)N[C@H](C(=O)OC)C(C)C` (some centres not stated) was greater than 100 µM; that for `O=C1c2ccccc2-c2nc(-c3cccc([N+](=O)[O-])c3)nnc21` was greater than 100 µM.
In the case of `CNC(=O)Oc1ccc(-c2cn3cc(OC(=O)NC)ccc3n2)cc1`, the TGI was greater than 100 µM.
For `N#Cc1nc(-c2cccs2)oc1N`, the TGI is greater than 100 µM.
Same read-out and setting: the value for `O=c1c2c([N+](=O)[O-])cccc2nc2[nH]c3ccccc3n12` was greater than 75 µM; that for `Cc1cc(C)cc(Nc2cc(=O)[nH]c(=O)[nH]2)c1` was greater than 100 µM.
The molecule `O=c1[nH]/c(=C/c2ccc(OCc3ccccc3)cn2)c(=O)[nH]/c1=C/c1ccc(O)cc1` showed a TGI greater than 100 µM.
As to `N#C/C(=C\n1ccc(=O)[nH]c1=S)C(N)=O`, the TGI is greater than 100 µM.
As for `Nn1c(CCCCCCCCc2nnc(COc3ccc(Cl)cc3)n2N)nnc1COc1ccc(Cl)cc1`, the TGI is greater than 100 µM.
Turning to `O=C(OCC1OC2OC(c3ccccc3)(n3ccc4c([N+](=O)[O-])ccnc43)OC2C1OC(=O)c1ccccc1)c1ccccc1` (configuration not stated), the TGI is greater than 100 µM.
In turn, `Cc1[nH]c(=O)[nH]c(=O)c1/C=C/C(=O)O` showed a TGI greater than 1000 µM.
Consider `OCC1OC(n2cnc3c(Cl)nc(Nc4ccccc4)nc32)CC1O` (configuration not stated), for which the TGI is greater than 100 µM.
Take `C[C@]12CCc3nc(Nc4ccccc4)sc3C1=CC[C@@H]1[C@@H]2CC[C@]2(C)/C(=N/NC(N)=S)CC[C@@H]12`: the GI50 was 10.3 µM and the TGI was greater than 100 µM.
In the case of `CN(NC(=O)c1cccs1)C1=NCCCN1`, the TGI was greater than 100 µM.
In turn, `CC1=NN(c2ccc(S(=O)(=O)O)cc2)C2(C1)SCC(=O)N2c1nc2ccccc2s1` (configuration not stated) registered a TGI greater than 100 µM.
Same read-out and setting: next, `Nc1ccc2[nH]c3c(-c4ccccc4)nccc3c2c1`: greater than 100 µM; `Cc1ccc2nc(Cl)c(/C=N/N3C(=O)/C(=C/c4ccccc4S)N=C3c3ccccc3)cc2c1`: greater than 100 µM.
Take `CCOP(=O)(OCC)c1c(C(=O)OC)cc(=O)[nH]c1-c1ccc(C)cc1`: the TGI was greater than 54.3 µM.
`COC(=O)C1=C(C(=O)OC)SC2(S1)C1=C(CCCC1)SC(C(=O)OC)=C2C(=O)OC`: the TGI was 30.2 µM.
`Cc1cn(C2CC(n3cc(Cn4cc(Br)c(=O)[nH]c4=O)nn3)C(CO)O2)c(=O)[nH]c1=O` (configuration not stated) yielded a TGI greater than 100 µM.
In turn, `CC1Cn2c(nc3ccccc32)NC1=O` (configuration not stated) came in with a TGI greater than 100 µM.
On the same count and under the same terms, the value for `Cc1cn(C(Cc2ccccc2)OCCO)c(=O)[nH]c1=O` (configuration not stated) was greater than 100 µM.
